Source: paper PMC9846164, “Oral administration of VDAC1-derived small molecule peptides increases circulating testosterone levels in male rats” (Frontiers in Endocrinology, 2023)
“Also recorded” adds a separate entry of the source. Square brackets hold non-standard residues; d marks the D form. Peptide text beside a SMILES is read from it.

Columns and labels:
[1] = tested on: Brown-Norway rats; assay: Oral gavage of peptides; plasma testosterone and corticosterone; assay type: in vivo, rat; details: ~10 µg/kg oral, 2 hrs after gavage
Experimental: All peptides were dissolved in molecular grade, sterile double distilled water to obtain a 1 mM stock solution and stored at -20°C. Peptides used for oral screenings were prepared from 1 mM peptide stock and diluted in sterile tap water in a total volume of 1 ml.
All samples were measured in duplicate according to each of the manufacturer’s instructions. Serum, plasma, or intratesticular fluid samples were diluted until controls fitted the middle of the standard curve used.

[2] = Oral pharmacokinetics after single oral dose; assay type: in vivo, rat; details: Brown-Norway, rat; single oral dose 10 mg peptide in 1 ml, fasted 4 hrs, jugular plasma 5-120 minutes, LC-MS/MS, N=4 in two rounds, Figure 4K; read-out: time to peak concentration in blood (converted)
Experimental: (§1) For all oral experiments, administration via gavage began between 8:30-8:50 am with a 3-minute delay between each rat. Animals used for pharmacokinetic studies were fasted for 4 hrs before starting gavage at 1 pm with a 3-minute delay between each rat.
(§2) For oral pharmacokinetic experiments, jugular blood samples were collected following a single oral dose of 10 mg peptide in 1 ml of vehicle after 5, 15, 30, 45, 60, 90, and 120 minutes. Protein inhibitor cocktail (ROCHE, cOmplete protease inhibitors, Cat# 11697498001), which was added into the EDTA collection tubes, was used for KVSQ and RVTQ peptides. Plasma was immediately extracted, and 100 μL of plasma were crashed with 300 µL of 100% methanol, spun at 14,000 RPM for 10 min, and the supernatant harvested. Re-extraction of the precipitant and solubilization of the pellet were as described above.
(§3) The analytical instrumentation consisted of a Thermo-Scientific ISQ Quantiva Triple Quadrupole Mass Spectrometer (QQQ), incorporating a heated electrospray ionization (HESI) source, and a Thermo-Scientific UltiMate™ 3000 UHPLC system (including, UltiMate™ 3000 RS autosampler). Analytical conditions were developed using a reference standard in a solution containing 5 µM of the corresponding peptide. The chromatography was resolved by isocratic elution of a binary solvent system incorporating (A) 0.1% Formic Acid (aq) and (B) ACN + 0.1% FA and using an Agilent Eclipse Plus™ C18 analytical column (100mm X 2.1mm ID, 1.8 µm particle). A 5µL injection volume and solvent flow rate of 150 µL/min were used. The MS/MS acquisition time was 7 min and total run time was 8.3 min/injection. The triple Quadrupole MS/MS instrumentation conditions were as follows: the HESI source voltage was 3200 V, the sheath gas […], auxilirary gas 20 L/min, sweep gas 2.0 L/min, the ion transfer temperature was 350°C, the vaporizer temperature was 350°C, the CID gas was 1.5 (mTorr) and the dwell time was 100 msec. The Q1 Resolution (FWHM) was 0.4 (unitless) and the Q3 resolution (FWHM) was 0.7 (unitless). […]

[3] = Peptide stability in plasma; assay type: in vitro ADME; details: 4 µM peptide (KVSQ 12.5 µM) in 100 µl Brown-Norway rat plasma, 37°C, 1-120 minutes, methanol crash, LC-MS/MS SRM, % of 1 min level, N=3 mean ± SEM, Figure 4J
Experimental: For peptide stability experiments, plasma from Brown-Norway rats aged 90-140 days was collected and stored at -20°C until further use. The plasma was thawed, spun at 12,000 RPM for 10 min, and kept at 4°C. 4 μM of the various peptides were incubated with 100 μL of plasma that was warmed at 37°C for 10 min before use. After 1, 15, 30, 60, 90 or 120 minutes, the plasma/peptide samples were crashed with 300 µL of 100% methanol, spun at 14,000 RPM for 10 min, and the supernatant collected. The methanol in the supernatant was evaporated and the samples were re-extracted. The final pellet was solubilized in 5 μL methanol followed by the addition of 100 μL of sterile double distilled water. The extracted samples were transferred to plastic tubes and placed in the autoloader of the mass spectrometer.
as §3, with “(unitless). The instrument ran in a selected reaction monitoring (SRM), positive ion detection mode at various collision energies (CE) for the following mass transitions:” for “(unitless).”

[4] = tested on: Brown-Norway rats; assay: Oral pharmacokinetics after single oral dose; assay type: in vivo, rat; details: single oral dose 10 mg in 1 ml; protease inhibitor cocktail in tubes for KVSQ and RVTQ; LC-MS/MS
Experimental: as §1, §2, §3

[5] = RdVTQ stability on storage (mass-spec area under the curve); assay type: physicochemical; details: fresh vs in distilled water at 37°C for 7 - 28 days, freeze/thaw, stored at -20°C; Figure 5F
Experimental: as §3, with “(unitless). The instrument ran in a selected reaction monitoring (SRM), positive ion detection mode at various collision energies (CE) for the following mass transitions:” for “(unitless).”

CC[C@@H](C)[C@@H](NC(=O)[C@H](CCCCN)NC(C)=O)C(=O)N[C@H](C(=O)N[C@@H](CCC(N)=O)C(N)=O)[C@@H](C)O [Ac-KdITQ-CONH2] (Ac-K[dI]TQ-NH2)
average testosterone levels at ~10 µg/kg [1]: increased, although not significantly

CC[C@H](C)[C@H](NC(=O)[C@H](CCCNC(=N)N)NC(C)=O)C(=O)N[C@H](C(=O)N[C@@H](CCC(N)=O)C(=O)N[C@H](CO)C(N)=O)[C@@H](C)O [Ac-RITQdS-CONH2] (Ac-RITQ[dS]-NH2)
Tmax [2]: ~15 min | half-life in plasma (rank order) [3]: Ac-RITQdS-CONH2 > RdVTQ > Ac-RdITQ-CONH2 > RITQ > RVTQ > KVSQ

CC[C@@H](C)[C@@H](NC(=O)[C@H](CCCNC(=N)N)NC(C)=O)C(=O)N[C@H](C(=O)N[C@@H](CCC(N)=O)C(N)=O)[C@@H](C)O [Ac-RdITQ-CONH2] (Ac-R[dI]TQ-NH2)
half-life in plasma (rank order) [3]: Ac-RITQdS-CONH2 > RdVTQ > Ac-RdITQ-CONH2 > RITQ > RVTQ > KVSQ

CC(C)[C@H](NC(=O)[C@@H](N)CCCCN)C(=O)N[C@@H](CO)C(=O)N[C@@H](CCC(N)=O)C(=O)O [KVSQ] (H-KVSQ-OH)
detection in rat plasma after oral dose [4]: not detected | half-life in plasma (rank order) [3]: rapid degradation; also recorded: Ac-RITQdS-CONH2 > RdVTQ > Ac-RdITQ-CONH2 > RITQ > RVTQ > KVSQ

CC[C@H](C)[C@H](NC(=O)[C@@H](N)CCCNC(=N)N)C(=O)N[C@H](C(=O)N[C@@H](CCC(N)=O)C(=O)O)[C@@H](C)O [RITQ] (H-RITQ-OH)
half-life in plasma (rank order) [3]: Ac-RITQdS-CONH2 > RdVTQ > Ac-RdITQ-CONH2 > RITQ > RVTQ > KVSQ

CC(C)[C@H](NC(=O)[C@@H](N)CCCNC(=N)N)C(=O)N[C@H](C(=O)N[C@@H](CCC(N)=O)C(=O)O)[C@@H](C)O [RVTQ] (H-RVTQ-OH)
detection in rat plasma after oral dose [4]: not detected | half-life in plasma (rank order) [3]: Ac-RITQdS-CONH2 > RdVTQ > Ac-RdITQ-CONH2 > RITQ > RVTQ > KVSQ

CC(C)[C@@H](NC(=O)[C@@H](N)CCCNC(=N)N)C(=O)N[C@H](C(=O)N[C@@H](CCC(N)=O)C(=O)O)[C@@H](C)O [RdVTQ] (H-R[dV]TQ-OH)
stability (area under the curve by mass-spec) [5]: highly stable | half-life in plasma (rank order) [3]: Ac-RITQdS-CONH2 > RdVTQ > Ac-RdITQ-CONH2 > RITQ > RVTQ > KVSQ
